Results as given in patent US10113185B2, “Utilization of phosphoketolase in the production of mevalonate, isoprenoid precursors, and isoprene” (Danisco US Inc., priority 2011, dated 2018).
Where two headings read alike, the source gives them in different places.

Key:
[1] = target: Lactobacillus plantarum phosphoketolase; details: cited from earlier work
[2] = tested on: Enterococcus gallinarum phosphoketolase (E. gallinarum PKL), encoded by SEQ ID NO:17; assay: Kinetic analysis of purified E. gallinarum phosphoketolase (ferric hydroxamate assay, AcP formation); assay type: biochemical
Description: The amino acid sequence of Enterococcus gallinarum PKL was obtained from GeneBank and was processed in GeneArt optimization software for optimized expression in E. coli. Two base pairs were added in front of the PKL gene to form a NcoI site and a Sad site was inserted just after the stop codon. The synthesized PKL gene was cloned into GeneArt kanamycin-resistant cloning plasmid. The E. gallinarum PKL gene (SEQ ID NO:17) was then subcloned into a BspHI/SacI-digested pTrcHis2B vector (Life Technologies, Carlsbad, Calif.) to form plasmid pCMP1321.
Cells were grown in LB medium with 50 ug/ml carbenecillin at 37 C prior to induction. […] For purification, E. gallinarum PKL cell pellets were resuspended in 50 mM MES pH 6.0, 50 mM NaCL, 0.5 mM AEBSF, 0.1 mg/ml DNaseI. […] Clarified lysate containing PKL from E. gallinarum was loaded onto a DEAE HiTrap FF column equilibrated in 50 mM MES, 50 mM NaCl, pH 6 and eluted with a gradient to 50 mM MES, 1M NaCl, pH 6. The resulting fractions were analyzed by SDS-PAGE. Fractions containing PKL were pooled and desalted using a G25 desalting column into 50 mM MES, 50 mM NaCL pH 6.0. Further purification was achieved using a MonoQ 10/100 GL column equilibrated in 50 mM MES, 50 mM NaCL, pH 6 with a salt gradient to 1M NaCl. Fractions containing PKL were pooled and analyzed by SDS PAGE, quantitation was achieved using A280 a molar extinction coefficient of 136980 determined by Vector NTI.
Time points were taken at various intervals. […] An AcP standard curve ranging between 12.5 and 0.2 mM was generated for quantitation.

[3] = tested on: Bifidobacterium lactis phosphoketolase; details: Meile et al. (2001), cited from earlier work
[4] = target: T1, Bifidobacterium longum phosphoketolase (B. longum PKL), SEQ ID NO: 4 (encoded by SEQ ID NO:3) (Bifidobacterium longum, UniProt A0ACD7USP0); details: 37° C., pH 6, saturating Pi (20 mM), enzyme 0.25 μM, time measured 60
T1 sequence (A0ACD7USP0 1-825): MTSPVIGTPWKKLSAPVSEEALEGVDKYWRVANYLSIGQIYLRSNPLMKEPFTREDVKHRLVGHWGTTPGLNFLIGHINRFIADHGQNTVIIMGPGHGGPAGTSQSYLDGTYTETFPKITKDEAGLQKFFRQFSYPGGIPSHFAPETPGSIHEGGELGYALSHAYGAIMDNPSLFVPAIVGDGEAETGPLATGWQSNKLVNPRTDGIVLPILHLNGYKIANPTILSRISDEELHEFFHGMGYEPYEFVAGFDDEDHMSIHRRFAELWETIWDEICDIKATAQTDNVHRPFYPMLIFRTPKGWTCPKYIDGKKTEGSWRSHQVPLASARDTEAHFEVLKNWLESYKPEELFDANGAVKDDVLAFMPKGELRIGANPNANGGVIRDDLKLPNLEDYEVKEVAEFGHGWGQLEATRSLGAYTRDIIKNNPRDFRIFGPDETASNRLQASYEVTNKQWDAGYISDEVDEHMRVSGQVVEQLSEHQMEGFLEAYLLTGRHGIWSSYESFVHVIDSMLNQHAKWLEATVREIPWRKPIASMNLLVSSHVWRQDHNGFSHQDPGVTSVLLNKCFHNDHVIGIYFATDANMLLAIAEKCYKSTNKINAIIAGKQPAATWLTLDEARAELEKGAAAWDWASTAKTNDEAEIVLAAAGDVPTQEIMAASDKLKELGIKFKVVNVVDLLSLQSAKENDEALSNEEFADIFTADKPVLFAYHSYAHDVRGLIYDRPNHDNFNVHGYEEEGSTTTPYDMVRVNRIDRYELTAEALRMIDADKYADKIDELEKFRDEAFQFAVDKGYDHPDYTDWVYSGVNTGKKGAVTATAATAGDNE

[5] = tested on: Bifidobacterium longum BB536 phosphoketolase; details: Grill et al. (1995), cited from earlier work
[6] = tested on: Bifidobacterium dentium ATCC27534 phosphoketolase; details: Grill et al. (1995), cited from earlier work
[7] = tested on: Bifidobacterium animalis ATCC 25527 phosphoketolase; details: Grill et al. (1995), cited from earlier work
[8] = tested on: Bifidobacterium globosum ATCC 25864 phosphoketolase; details: Grill et al. (1995), cited from earlier work
[9] = tested on: Bifidobacterium breve phosphoketolase; details: cited from earlier work
[10] = tested on: Lactobacillus paraplantarum C7 phosphoketolase; details: Jeong et al. (2007), cited from earlier work
[11] = tested on: Leuconostoc oenos phosphoketolase; details: Veiga-da-Cunha et al. (1993), cited from earlier work
[12] = substrate: O=P(O)(O)OC[C@H]1OC(O)(CO)[C@@H](O)[C@@H]1O; assay: purified protein, by the assay type; details: other: 37° C., pH 6, saturating Pi (20 mM), enzyme 0.25 μM, time measured 60
[13] = 37° C., pH 6, saturating Pi (20 mM), enzyme 0.5 μM, time measured 30

O=C[C@H](O)[C@H](O)COP(=O)(O)O [E4P, erythrose 4-phosphate]
Ki ([1]; for F6P as a substrate, read-out: Kis^E4P): 8 mM
Ki ([1]; for F6P as a substrate, read-out: Kll^E4P): 4.4 mM

O=P(O)(O)OC[C@H]1OC(O)(CO)[C@@H](O)[C@@H]1O (stereo partly drawn) [F6P, fructose 6-phosphate]
Km [2, 13]: 2.86 mM
Vmax [2, 13]: 0.71 µM/s
kcat [2, 13]: 1.4 s⁻¹
kcat ([2]; saturating Pi): 1.4 s⁻¹
kcat (F6P) [3]: kcat(F6P) = 8 s^−1
Km ([3]; read-out: Km(F6P)): 10 mM
kcat [4]: 16.6 s⁻¹
kcat (F6P) [5]: kcat (F6P) = 39 s^−1
Km ([5]; read-out: Km(F6P)): 26 mM
kcat (F6P) [6]: kcat (F6P) = 33 s^−1
Km ([6]; read-out: Km(F6P)): 23 mM
kcat (F6P) [7]: kcat (F6P) = 33 s^−1
Km ([7]; read-out: Km(F6P)): 11.5 mM
kcat (F6P) [8]: kcat (F6P) = 40 s^−1
Km ([8]; read-out: Km(F6P)): 12.5 mM
kcat (F6P) ([1]; Yevenes and Frey (2008)): kcat(F6P) = 2.7 s^−1
Km ([1]; read-out: Km(F6P), Yevenes and Frey (2008)): 24 mM
kcat (F6P) ([9]; Suzuki et al. (2010)): kcat (F6P) = 22.4 s^−1
Km ([9]; read-out: Km(F6P), Suzuki et al. (2010)): 9.7 mM
kcat (F6P) [10]: kcat(F6P) = 738 s^−1
Km ([10]; read-out: Km(F6P)): 5.1 mM
kcat (F6P) [11]: kcat (F6P) = 0.2 s−1
Km ([11]; read-out: Km(F6P)): 22 mM

O=P(O)(O)O [Pi, inorganic phosphate]
Km ([1]; for F6P as a substrate, read-out: Km(Pi)): 2.9 mM
Km ([1]; for X5P as a substrate, read-out: Km(Pi)): 7.5 mM
Km ([9]; for F6P as a substrate, read-out: KmPi): 1.2 mM

O=C(CO)[C@@H](O)[C@H](O)COP(=O)(O)O [X5P, xylulose 5-phosphate]
Km [2, 13]: 5.81 mM
Vmax [2, 13]: 2.18 µM/s
kcat [2, 13]: 4.4 s⁻¹
kcat ([2]; saturating Pi): 4.4 s⁻¹
kcat(X5P) [3]: kcat(X5P) = 42 s^−1
Km ([3]; read-out: Km(X5P)): 55 mM
kcat(X5P) ([1]; Yevenes and Frey (2008)): kcat(X5P) = 6.1 s^−1
Km ([1]; Yevenes and Frey (2008), read-out: Km(X5P)): 3.6 mM
kcat(X5P) ([9]; Suzuki et al. (2010)): kcat (X5P) = 44.8 s^−1
kcat(X5P) [11]: kcat (X5P) = 3.5 s^−1
Km ([11]; read-out: Km(X5P)): 1.6 mM

B1: Bifidobacterium longum phosphoketolase (B. longum PKL), SEQ ID NO: 4 (encoded by SEQ ID NO:3) (Bifidobacterium longum subsp. infantis ATCC 15697 = JCM 1222 = … (protein)
chain: MTSPVIGTPWKKLSAPVSEEALEGVDKYWRVANYLSIGQIYLRSNPLMKEPFTREDVKHRLVGHWGTTPGLNFLIGHINRFIADHGQNTVIIMGPGHGGPAGTSQSYLDGTYTETFPKITKDEAGLQKFFRQFSYPGGIPSHFAPETPGSIHEGGELGYALSHAYGAIMDNPSLFVPAIVGDGEAETGPLATGWQSNKLVNPRTDGIVLPILHLNGYKIANPTILSRISDEELHEFFHGMGYEPYEFVAGFDDEDHMSIHRRFAELWETIWDEICDIKATAQTDNVHRPFYPMLIFRTPKGWTCPKYIDGKKTEGSWRSHQVPLASARDTEAHFEVLKNWLESYKPEELFDANGAVKDDVLAFMPKGELRIGANPNANGGVIRDDLKLPNLEDYEVKEVAEFGHGWGQLEATRSLGAYTRDIIKNNPRDFRIFGPDETASNRLQASYEVTNKQWDAGYISDEVDEHMRVSGQVVEQLSEHQMEGFLEAYLLTGRHGIWSSYESFVHVIDSMLNQHAKWLEATVREIPWRKPIASMNLLVSSHVWRQDHNGFSHQDPGVTSVLLNKCFHNDHVIGIYFATDANMLLAIAEKCYKSTNKINAIIAGKQPAATWLTLDEARAELEKGAAAWDWASTAKTNDEAEIVLAAAGDVPTQEIMAASDKLKELGIKFKVVNVVDLLSLQSAKENDEALSNEEFADIFTADKPVLFAYHSYAHDVRGLIYDRPNHDNFNVHGYEEEGSTTTPYDMVRVNRIDRYELTAEALRMIDADKYADKIDELEKFRDEAFQFAVDKGYDHPDYTDWVYSGVNTGKKGAVTATAATAGDNE
Km [12]: 21.16 mM
Vmax [12]: 265 µM/min
kcat [12]: 16.6 s⁻¹
